Measured values from paper PMC5218480 (PLoS ONE, 2017).

System: MV-4-11 cells
Assay: Gene expression microarray analysis (Affymetrix PrimeView) and GSEA
Format: cell-based, human
Design: RFU PODN (11730768_x_at) / Fold change /veh PODN (11730768_x_at) / RFU LINC00158 (11744669_a_at) / Fold change /veh LINC00158 (11744669_a_at) / RFU DUSP10 (11751237_a_at) / Fold change /veh DUSP10 (11751237_a_at) / RFU ID3 (11757404_x_at) / Fold change /veh ID3 (11757404_x_at) / RFU PLEKHG5 (11737974_s_at) / Fold change /veh PLEKHG5 (11737974_s_at) / RFU LRRC4B (11730491_at) / Fold change /veh LRRC4B (11730491_at) / RFU GIMAP4 (11747438_a_at) / Fold change /veh GIMAP4 (11747438_a_at) / RFU KRT8 (11758183_x_at) / Fold change /veh KRT8 (11758183_x_at) / RFU CNN1 (11734310_a_at) / Fold change /veh CNN1 (11734310_a_at) / RFU VPS37D (11726825_at) / Fold change /veh VPS37D (11726825_at) / RFU C10orf10 (11716522_x_at) / Fold change /veh C10orf10 (11716522_x_at) / RFU KIR2DL2 /// KIR2DL4 /// KIR2DL5A /// KIR2DL5B /// KIR2DS1 /// KIR2DS2 /// KIR2DS3 /// KIR2DS4 /// KIR3DL3 /// KIR3DL3 /// KIR3DS1 (11738374_at) / Fold change /veh KIR2DL2 /// KIR2DL4 /// KIR2DL5A /// KIR2DL5B /// KIR2DS1 /// KIR2DS2 /// KIR2DS3 /// KIR2DS4 /// KIR3DL3 /// KIR3DL3 /// KIR3DS1 (11738374_at) / RFU C1QL1 (11718748_at) / Fold change /veh C1QL1 (11718748_at) / RFU TMPRSS4 (11747572_a_at) / Fold change /veh TMPRSS4 (11747572_a_at) / RFU HAMP (11756126_x_at) / Fold change /veh HAMP (11756126_x_at) / RFU RNFT2 (11725882_a_at) / Fold change /veh RNFT2 (11725882_a_at) / RFU NR4A2 (11747474_a_at) / Fold change /veh NR4A2 (11747474_a_at) / RFU ABCC12 (11746883_a_at) / Fold change /veh ABCC12 (11746883_a_at) / RFU TMEM136 (11760407_x_at) / Fold change /veh TMEM136 (11760407_x_at) / RFU CLDN22 /// WWC2 (11732394_at) / Fold change /veh CLDN22 /// WWC2 (11732394_at) / RFU HLA-DPB1 (11760878_x_at) / Fold change /veh HLA-DPB1 (11760878_x_at) / RFU SPINT1 (11716480_a_at) / Fold change /veh SPINT1 (11716480_a_at) / RFU GAP43 (11754022_s_at) / Fold change /veh GAP43 (11754022_s_at) / RFU A4GNT (11735810_at) / Fold change /veh A4GNT (11735810_at) / RFU PRB3 (11715151_x_at) / Fold change /veh PRB3 (11715151_x_at) / RFU TUBB4B (11761932_at) / Fold change /veh TUBB4B (11761932_at) / RFU CAPN14 (11732068_a_at) / Fold change /veh CAPN14 (11732068_a_at) / RFU TMCC2 (11721928_a_at) / Fold change /veh TMCC2 (11721928_a_at) / RFU IRGQ (11745062_a_at) / Fold change /veh IRGQ (11745062_a_at) / RFU FAM174B (11720279_a_at) / Fold change /veh FAM174B (11720279_a_at) / RFU TMPRSS4 (11748680_a_at) / Fold change /veh TMPRSS4 (11748680_a_at) / RFU FAM212B (11763350_a_at) / Fold change /veh FAM212B (11763350_a_at) / RFU PLEKHG5 (11743358_a_at) / Fold change /veh PLEKHG5 (11743358_a_at) / RFU ZSCAN30 (11745921_a_at) / Fold change /veh ZSCAN30 (11745921_a_at) / RFU CMKLR1 (11741424_a_at) / Fold change /veh CMKLR1 (11741424_a_at) / RFU LOC101060620 /// MAPK8IP1 (11723275_at) / Fold change /veh LOC101060620 /// MAPK8IP1 (11723275_at) / RFU SPTSSB (11747773_x_at) / Fold change /veh SPTSSB (11747773_x_at) / RFU PRSS12 (11739890_at) / Fold change /veh PRSS12 (11739890_at) / RFU BIN1 (11741810_x_at) / Fold change /veh BIN1 (11741810_x_at) / RFU WNT11 (11732464_a_at) / Fold change /veh WNT11 (11732464_a_at) / RFU C10orf10 (11716521_a_at) / Fold change /veh C10orf10 (11716521_a_at) / RFU C5orf56 (11738089_at) / Fold change /veh C5orf56 (11738089_at) / RFU CYB561 (11721691_x_at) / Fold change /veh CYB561 (11721691_x_at) / RFU ANKRD19P (11752326_a_at) / Fold change /veh ANKRD19P (11752326_a_at) / RFU OR2T12 /// OR2T33 /// OR2T8 (11738714_s_at) / Fold change /veh OR2T12 /// OR2T33 /// OR2T8 (11738714_s_at) / RFU VCAN (11748164_a_at) / Fold change /veh VCAN (11748164_a_at) / RFU JSRP1 (11732532_at) / Fold change /veh JSRP1 (11732532_at) / RFU KRTAP10-11 (11738290_x_at) / Fold change /veh KRTAP10-11 (11738290_x_at) / RFU MYO3A (11730013_a_at) / Fold change /veh MYO3A (11730013_a_at) / RFU EBF3 (11725865_a_at) / Fold change /veh EBF3 (11725865_a_at) / RFU CAMK2N1 (11719241_x_at) / Fold change /veh CAMK2N1 (11719241_x_at) / RFU C5orf56 (11738088_a_at) / Fold change /veh C5orf56 (11738088_a_at) / RFU OLFML3 (11715873_a_at) / Fold change /veh OLFML3 (11715873_a_at) / RFU LOC100653217 /// NTM (11731650_a_at) / Fold change /veh LOC100653217 /// NTM (11731650_a_at) / RFU MAPK11 (11762145_a_at) / Fold change /veh MAPK11 (11762145_a_at) / RFU FIZ1 (11724087_x_at) / Fold change /veh FIZ1 (11724087_x_at) / RFU OASL (11726364_x_at) / Fold change /veh OASL (11726364_x_at) / RFU SOX15 (11748057_x_at) / Fold change /veh SOX15 (11748057_x_at) / RFU CD79A (11719716_a_at) / Fold change /veh CD79A (11719716_a_at) / RFU HIST1H1D (11736915_at) / Fold change /veh HIST1H1D (11736915_at) / RFU CASKIN2 (11723855_a_at) / Fold change /veh CASKIN2 (11723855_a_at) / RFU LOC730098 (11760151_x_at) / Fold change /veh LOC730098 (11760151_x_at) / RFU OR4N2 (11742367_at) / Fold change /veh OR4N2 (11742367_at) / RFU PRRT2 (11749266_a_at) / Fold change /veh PRRT2 (11749266_a_at) / RFU SNX32 (11753110_a_at) / Fold change /veh SNX32 (11753110_a_at) / RFU CDHR5 (11726645_a_at) / Fold change /veh CDHR5 (11726645_a_at) / RFU RCAN1 (11760418_a_at) / Fold change /veh RCAN1 (11760418_a_at) / RFU FAM167A (11723789_a_at) / Fold change /veh FAM167A (11723789_a_at) / RFU FAM26E (11764081_at) / Fold change /veh FAM26E (11764081_at) / RFU ISYNA1 (11749810_s_at) / Fold change /veh ISYNA1 (11749810_s_at) / RFU ACY1 (11761880_at) / Fold change /veh ACY1 (11761880_at) / RFU 11764098_at / Fold change /veh 11764098_at / RFU SAMD14 (11745864_x_at) / Fold change /veh SAMD14 (11745864_x_at) / RFU NPB (11741838_a_at) / Fold change /veh NPB (11741838_a_at) / RFU TMPRSS6 (11731388_a_at) / Fold change /veh TMPRSS6 (11731388_a_at) / RFU KRTAP10-2 (11738614_at) / Fold change /veh KRTAP10-2 (11738614_at) / RFU ARHGAP8 /// PRR5-ARHGAP8 (11727945_x_at) / Fold change /veh ARHGAP8 /// PRR5-ARHGAP8 (11727945_x_at) / RFU KRTAP5-7 /// NADSYN1 (11734609_at) / Fold change /veh KRTAP5-7 /// NADSYN1 (11734609_at) / RFU RASL12 (11751679_a_at) / Fold change /veh RASL12 (11751679_a_at) / RFU CDKN2B (11736163_a_at) / Fold change /veh CDKN2B (11736163_a_at) / RFU PRF1 (11729649_at) / Fold change /veh PRF1 (11729649_at) / RFU, ZNF638 /// ZNF638-IT1 / Fold change vs veh, ZNF638 /// ZNF638-IT1 / RFU, PANK3 / Fold change vs veh, PANK3 / RFU, SH3YL1 / Fold change vs veh, SH3YL1 / RFU, ZEB2 / Fold change vs veh, ZEB2 / RFU, NRIP1 / Fold change vs veh, NRIP1 / RFU, PTTG1IP / Fold change vs veh, PTTG1IP / RFU, CAPN2 / Fold change vs veh, CAPN2 / RFU, MED14 / Fold change vs veh, MED14 / RFU, SNORA58 / Fold change vs veh, SNORA58 / RFU, C1orf63 / Fold change vs veh, C1orf63 / RFU, LRRFIP1 / Fold change vs veh, LRRFIP1 / RFU, NDUFAF7 / Fold change vs veh, NDUFAF7 / RFU, SLC12A2 / Fold change vs veh, SLC12A2 / RFU, IBTK / Fold change vs veh, IBTK / RFU, ESF1 / Fold change vs veh, ESF1 / Fold change vs veh, TMEM50B / RFU, TAOK1 / Fold change vs veh, TAOK1 / RFU, ACBD3 / Fold change vs veh, ACBD3 / RFU, TMA16 / Fold change vs veh, TMA16 / RFU, RWDD3 / Fold change vs veh, RWDD3 / RFU, BCAT1 / Fold change vs veh, BCAT1 / RFU, EDEM3 / Fold change vs veh, EDEM3 / RFU, TMEM33 / Fold change vs veh, TMEM33 / RFU, WDR75 / Fold change vs veh, WDR75 / RFU, AHCTF1 / Fold change vs veh, AHCTF1 / RFU, TFRC / Fold change vs veh, TFRC / RFU, ZDHHC17 / Fold change vs veh, ZDHHC17 / RFU, NOM1 / Fold change vs veh, NOM1 / RFU, ARL8B / Fold change vs veh, ARL8B / RFU, ZBTB11 / Fold change vs veh, ZBTB11 / RFU, TAMM41 / Fold change vs veh, TAMM41 / RFU, KIAA1704 /// LOC100996395 / Fold change vs veh, KIAA1704 /// LOC100996395 / RFU, ING1 / Fold change vs veh, ING1 / RFU, TRMT61B / Fold change vs veh, TRMT61B / RFU, FUBP3 / Fold change vs veh, FUBP3 / RFU, TP53 / Fold change vs veh, TP53 / RFU, TNKS2 / Fold change vs veh, TNKS2 / RFU, ZFP14 / Fold change vs veh, ZFP14 / RFU, ACTR2 / Fold change vs veh, ACTR2 / RFU, PPP3R1 / Fold change vs veh, PPP3R1 / RFU, PIK3R1 / Fold change vs veh, PIK3R1 / RFU, HNRNPA1 / Fold change vs veh, HNRNPA1 / RFU, RNF170 / Fold change vs veh, RNF170 / RFU, ZNF28 / Fold change vs veh, ZNF28 / RFU, RNGTT / Fold change vs veh, RNGTT / RFU, OGT / Fold change vs veh, OGT / RFU, BRD1 / Fold change vs veh, BRD1 / RFU, MARS / Fold change vs veh, MARS / RFU, ZNF655 / Fold change vs veh, ZNF655 / RFU, FAHD1 / Fold change vs veh, FAHD1 / RFU, BDP1 / Fold change vs veh, BDP1 / RFU, LRRCC1 / Fold change vs veh, LRRCC1 / RFU, ARID1A / Fold change vs veh, ARID1A / RFU, ZNF146 / Fold change vs veh, ZNF146 / RFU, ZNF330 / Fold change vs veh, ZNF330 / RFU, GPN3 / Fold change vs veh, GPN3 / RFU, C9orf123 / Fold change vs veh, C9orf123 / RFU, N4BP2L2 / Fold change vs veh, N4BP2L2 / RFU, ARFIP1 / Fold change vs veh, ARFIP1 / RFU, FAM179B / Fold change vs veh, FAM179B / RFU, BCL10 / Fold change vs veh, BCL10 / RFU, UHRF1BP1L / Fold change vs veh, UHRF1BP1L / RFU, BET1 / Fold change vs veh, BET1 / RFU, CNOT2 / Fold change vs veh, CNOT2 / RFU, ZNF268 / Fold change vs veh, ZNF268 / Fold change vs veh, ZNF507 / RFU, DGCR2 / Fold change vs veh, DGCR2 / RFU, WDSUB1 / Fold change vs veh, WDSUB1 / Fold change vs veh, HSP90B1 /// MIR3652 / RFU, ADSS / Fold change vs veh, ADSS / RFU, GK / Fold change vs veh, GK / RFU, ZNF148 / Fold change vs veh, ZNF148 / RFU, TAF9 / Fold change vs veh, TAF9 / RFU, SLC1A5 / Fold change vs veh, SLC1A5 / RFU, SLMO2 / Fold change vs veh, SLMO2 / RFU, ABCC4 / Fold change vs veh, ABCC4 / RFU, LOC101060439 /// RAP1B / Fold change vs veh, LOC101060439 /// RAP1B / RFU, RFX7 / Fold change vs veh, RFX7 / RFU, GTPBP10 / Fold change vs veh, GTPBP10 / RFU, CNEP1R1 / Fold change vs veh, CNEP1R1 / RFU, BIVM-ERCC5 /// ERCC5 / Fold change vs veh, BIVM-ERCC5 /// ERCC5 / RFU, ILF3 / Fold change vs veh, ILF3 / RFU 11762660_at / Fold change /veh 11762660_at / RFU VCAN (11757783_s_at) / Fold change /veh VCAN (11757783_s_at) / RFU DDX43 (11728927_at) / Fold change /veh DDX43 (11728927_at) / RFU KRT8 (11758188_x_at) / Fold change /veh KRT8 (11758188_x_at) / RFU NKD1 (11759106_at) / Fold change /veh NKD1 (11759106_at) / RFU SRD5A1 (11742802_a_at) / Fold change /veh SRD5A1 (11742802_a_at) / RFU TPSAB1 /// TPSB2 (11721975_s_at) / Fold change /veh TPSAB1 /// TPSB2 (11721975_s_at) / RFU GSTM3 (11746129_a_at) / Fold change /veh GSTM3 (11746129_a_at) / RFU IL23R (11737362_x_at) / Fold change /veh IL23R (11737362_x_at) / RFU TMEM51 (11727254_a_at) / Fold change /veh TMEM51 (11727254_a_at) / RFU PIWIL2 (11732686_x_at) / Fold change /veh PIWIL2 (11732686_x_at) / RFU ORM1 (11744905_x_at) / Fold change /veh ORM1 (11744905_x_at) / RFU CCDC152 (11743942_at) / Fold change /veh CCDC152 (11743942_at) / RFU ECM1 (11717891_a_at) / Fold change /veh ECM1 (11717891_a_at) / RFU IL23R (11748794_a_at) / Fold change /veh IL23R (11748794_a_at) / RFU TNFAIP8L3 (11732012_x_at) / Fold change /veh TNFAIP8L3 (11732012_x_at) / RFU MBOAT4 (11741988_at) / Fold change /veh MBOAT4 (11741988_at) / RFU 11764193_at / Fold change /veh 11764193_at / RFU TMEM53 (11763286_at) / Fold change /veh TMEM53 (11763286_at) / RFU MAGEB2 (11727129_at) / Fold change /veh MAGEB2 (11727129_at) / RFU TMEM200A (11744735_a_at) / Fold change /veh TMEM200A (11744735_a_at) / RFU CCDC152 (11751479_a_at) / Fold change /veh CCDC152 (11751479_a_at) / RFU FAM211A (11726209_a_at) / Fold change /veh FAM211A (11726209_a_at) / RFU RGS16 (11746705_a_at) / Fold change /veh RGS16 (11746705_a_at) / RFU VCAN (11755009_s_at) / Fold change /veh VCAN (11755009_s_at) / RFU RHOB (11743442_s_at) / Fold change /veh RHOB (11743442_s_at) / RFU RGS16 (11720943_a_at) / Fold change /veh RGS16 (11720943_a_at) / RFU RGS16 (11720944_at) / Fold change /veh RGS16 (11720944_at) / RFU, VPS4B / Fold change vs veh, VPS4B / RFU, CREB1 / Fold change vs veh, CREB1 / RFU, DNAJC13 / Fold change vs veh, DNAJC13 / RFU, GNAQ / Fold change vs veh, GNAQ / RFU, CDK5R1 / Fold change vs veh, CDK5R1 / RFU, ZRANB3 / Fold change vs veh, ZRANB3 / RFU, CUL4A / Fold change vs veh, CUL4A / RFU, CCNY / Fold change vs veh, CCNY / RFU, UFL1 / Fold change vs veh, UFL1 / RFU, COG3 / Fold change vs veh, COG3 / RFU, DIAPH2 / Fold change vs veh, DIAPH2 / RFU, SKA2 / Fold change vs veh, SKA2 / RFU, AFF3 / Fold change vs veh, AFF3 / RFU, LMF1 / Fold change vs veh, LMF1 / RFU, IPO11 / Fold change vs veh, IPO11 / RFU, DFFB / Fold change vs veh, DFFB / RFU, FOXP1 / Fold change vs veh, FOXP1 / RFU, CARD8 / Fold change vs veh, CARD8 / RFU, STRN3 / Fold change vs veh, STRN3 / RFU, ADK / Fold change vs veh, ADK / RFU, RASSF2 / Fold change vs veh, RASSF2 / RFU, WIPF1 / Fold change vs veh, WIPF1 / RFU, LARP1B / Fold change vs veh, LARP1B / RFU, RASA1 / Fold change vs veh, RASA1 / RFU, RB1 / Fold change vs veh, RB1 / RFU, PPFIA1 / Fold change vs veh, PPFIA1 / RFU, MAT2A / Fold change vs veh, MAT2A / RFU, CCT5 / Fold change vs veh, CCT5 / RFU, WDR92 / Fold change vs veh, WDR92 / RFU, CUX1 / Fold change vs veh, CUX1 / RFU, TTC7A / Fold change vs veh, TTC7A / RFU, TMEM135 / Fold change vs veh, TMEM135 / RFU, DEPTOR / Fold change vs veh, DEPTOR / RFU, CPM / Fold change vs veh, CPM / RFU, DNAJB6 / Fold change vs veh, DNAJB6 / RFU, CACNA2D3 / Fold change vs veh, CACNA2D3 / RFU, DTX4 / Fold change vs veh, DTX4 / RFU, TFCP2 / Fold change vs veh, TFCP2 / RFU, GMCL1 /// GMCL1P1 / Fold change vs veh, GMCL1 /// GMCL1P1 / RFU, AEBP2 / Fold change vs veh, AEBP2 / RFU, SNHG1 /// SNORD22 /// SNORD25 /// SNORD26 /// SNORD27 /// SNORD28 /// SNORD29 /// SNORD31 / Fold change vs veh, SNHG1 /// SNORD22 /// SNORD25 /// SNORD26 /// SNORD27 /// SNORD28 /// SNORD29 /// SNORD31 / Fold change (Aza/veh), C12orf56 (ProbeSet 11735607_a_at) / Fold change (ACY-1035/veh), C12orf56 (ProbeSet 11735607_a_at) / Fold change (Aza/veh), FGFR1OP (ProbeSet 11751329_s_at) / Fold change (ACY-1035/veh), FGFR1OP (ProbeSet 11751329_s_at) / Fold change (Aza/veh), VPS36 (ProbeSet 11739960_a_at) / Fold change (ACY-1035/veh), VPS36 (ProbeSet 11739960_a_at) / RFU SYPL1 (11715823_x_at) / Fold change /veh SYPL1 (11715823_x_at) / RFU IGFBP7 (11715501_s_at) / Fold change /veh IGFBP7 (11715501_s_at) / RFU REEP3 (11722064_at) / Fold change /veh REEP3 (11722064_at) / RFU IGLL1 (11728026_x_at) / Fold change /veh IGLL1 (11728026_x_at): dose or concentration left out as unconfirmed
Conditions: ProbeSet 11743929_at; LIST B

Nc1ccc(-c2cccs2)cc1NC(=O)c1ccc2c(c1)cc(C1CC1)n2CCN1CCOCC1 [ACY-1035]
RFU, UHRF1BP1L: 242.75 RFU
